In US9186318B2, “Quinolyl-containing hydroxamic acid compound and preparation method thereof, and pharmaceutical composition containing this compound and use thereof” (Beijing Konruns Pharmaceutical Co., Ltd, priority 2011, dated 2015):

Experiments:
Assay in all cases: KinomeScan 96-kinase panel
Type in all cases: binding
Conditions in all cases: compound concentration 1000 nM
GSK3B = GSK3B (Homo sapiens (Human), UniProt P49841)
Description: (§1) The details of the screening technology were described in Fabian, M. A. et al, Nat., Biotechnol. 2005, 23, 329 and Karaman, M. W. et al, Nat., Biotechnol. 2008, 26, 127. From the above representative results, it can be seen that the compounds of the present invention have potent inhibitory activities on kinases including ALK, AXL, VEGFR2, PDGFR-α, PDGFR-β, c-KIT, Flt3, MEK1, MEK2, CSF1R, EPHA2, EPHA2, MKNK2, SRC, TIE2 and their mutants. Accordingly, the compounds of the present invention can be used for the treatment of diseases caused by abnormal activities of these kinases, e.g., cancer, psoriasis, hepatic cirrhosis, diabetes, diseases involving angiogenesis, eye diseases, immune system diseases, cardiovascular diseases, and so forth.

ACVR1B = ACVR1B (Homo sapiens (Human), UniProt P36896)
Description: as §1

ROCK2 = ROCK2 (Homo sapiens (Human), UniProt O75116)
Description: as §1

MEK1 = MEK1 (Homo sapiens (Human), UniProt Q02750)
Description: as §1

CDK7 = CDK7 (Homo sapiens (Human), UniProt P50613)
Description: as §1

PDGFRA = PDGFRA (Homo sapiens (Human), UniProt P16234)
Description: as §1

MARK3 = MARK3 (Homo sapiens (Human), UniProt P27448)
Description: as §1

MEK2 = MEK2 (Homo sapiens (Human), UniProt P36507)
Description: as §1

MAPKAPK2 = MAPKAPK2 (Homo sapiens (Human), UniProt P49137)
Description: as §1

[1] = target: ABL1(E255K)-phosphorylated (Homo sapiens (Human), UniProt P00519, E255K)
Description: as §1

AKT2 = AKT2 (Homo sapiens (Human), UniProt P31751)
Description: as §1

[2] = target: ABL1(T315I)-phosphorylated (Homo sapiens (Human), UniProt P00519, T315I)
Description: as §1

PDGFRB = PDGFRB (Homo sapiens (Human), UniProt P09619)
Description: as §1

JNK3 = JNK3 (Homo sapiens (Human), UniProt P53779)
Description: as §1

MAP3K4 = MAP3K4 (Homo sapiens (Human), UniProt Q9Y6R4)
Description: as §1

KIT = KIT (Homo sapiens (Human), UniProt P10721)
Description: as §1

JNK2 = JNK2 (Homo sapiens (Human), UniProt P45984)
Description: as §1

RAF1 = RAF1 (Homo sapiens (Human), UniProt P04049)
Description: as §1

PIM3 = PIM3 (Homo sapiens (Human), UniProt Q86V86)
Description: as §1

PCTK1 = PCTK1 (Homo sapiens (Human), UniProt Q00536)
Description: as §1

MKNK1 = MKNK1 (Homo sapiens (Human), UniProt Q9BUB5)
Description: as §1

CSNK1G2 = CSNK1G2 (Homo sapiens (Human), UniProt P78368)
Description: as §1

RIOK2 = RIOK2 (Homo sapiens (Human), UniProt Q9BVS4)
Description: as §1

FGFR3 = FGFR3 (Homo sapiens (Human), UniProt P22607)
Description: as §1

AURKB = AURKB (Homo sapiens (Human), UniProt Q96GD4)
Description: as §1

MKNK2 = MKNK2 (Homo sapiens (Human), UniProt Q9HBH9)
Description: as §1

PAK4 = PAK4 (Homo sapiens (Human), UniProt O96013)
Description: as §1

CHEK1 = CHEK1 (Homo sapiens (Human), UniProt O14757)
Description: as §1

PKAC-alpha = PKAC-alpha (Homo sapiens (Human), UniProt P17612)
Description: as §1

EGFR(L858R) = EGFR(L858R) (Homo sapiens (Human), UniProt P00533, L858R)
Description: as §1

DCAMKL1 = DCAMKL1 (Homo sapiens (Human), UniProt O15075)
Description: as §1

CSF1R = CSF1R (Homo sapiens (Human), UniProt P07333)
Description: as §1

ERK1 = ERK1 (Homo sapiens (Human), UniProt P27361)
Description: as §1

PRKCE = PRKCE (Homo sapiens (Human), UniProt Q02156)
Description: as §1

AXL = AXL (Homo sapiens (Human), UniProt P30530)
Description: as §1

CDK9 = CDK9 (Homo sapiens (Human), UniProt P50750)
Description: as §1

BTK = BTK (Homo sapiens (Human), UniProt Q06187)
Description: as §1

Chain of PRKCE (Q02156 whole entry): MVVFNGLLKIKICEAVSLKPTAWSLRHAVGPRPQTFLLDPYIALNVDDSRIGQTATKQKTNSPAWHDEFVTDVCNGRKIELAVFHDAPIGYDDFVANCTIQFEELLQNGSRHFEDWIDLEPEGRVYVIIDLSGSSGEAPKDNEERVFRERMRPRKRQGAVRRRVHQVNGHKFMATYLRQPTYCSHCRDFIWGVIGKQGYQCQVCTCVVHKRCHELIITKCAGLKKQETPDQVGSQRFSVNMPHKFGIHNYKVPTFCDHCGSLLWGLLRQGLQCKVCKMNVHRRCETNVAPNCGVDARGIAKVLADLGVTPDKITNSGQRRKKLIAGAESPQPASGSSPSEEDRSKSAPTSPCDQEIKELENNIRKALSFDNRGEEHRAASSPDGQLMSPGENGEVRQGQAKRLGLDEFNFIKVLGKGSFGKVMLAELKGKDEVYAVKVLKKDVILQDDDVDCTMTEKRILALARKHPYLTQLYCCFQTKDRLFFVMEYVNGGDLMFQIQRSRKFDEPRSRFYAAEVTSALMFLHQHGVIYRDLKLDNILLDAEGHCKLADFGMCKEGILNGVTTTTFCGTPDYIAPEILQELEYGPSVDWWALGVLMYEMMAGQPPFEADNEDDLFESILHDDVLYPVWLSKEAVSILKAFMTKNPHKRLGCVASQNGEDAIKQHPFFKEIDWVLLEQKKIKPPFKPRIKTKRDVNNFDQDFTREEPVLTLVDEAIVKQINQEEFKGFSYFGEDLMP
Chain of BTK (Q06187 whole entry): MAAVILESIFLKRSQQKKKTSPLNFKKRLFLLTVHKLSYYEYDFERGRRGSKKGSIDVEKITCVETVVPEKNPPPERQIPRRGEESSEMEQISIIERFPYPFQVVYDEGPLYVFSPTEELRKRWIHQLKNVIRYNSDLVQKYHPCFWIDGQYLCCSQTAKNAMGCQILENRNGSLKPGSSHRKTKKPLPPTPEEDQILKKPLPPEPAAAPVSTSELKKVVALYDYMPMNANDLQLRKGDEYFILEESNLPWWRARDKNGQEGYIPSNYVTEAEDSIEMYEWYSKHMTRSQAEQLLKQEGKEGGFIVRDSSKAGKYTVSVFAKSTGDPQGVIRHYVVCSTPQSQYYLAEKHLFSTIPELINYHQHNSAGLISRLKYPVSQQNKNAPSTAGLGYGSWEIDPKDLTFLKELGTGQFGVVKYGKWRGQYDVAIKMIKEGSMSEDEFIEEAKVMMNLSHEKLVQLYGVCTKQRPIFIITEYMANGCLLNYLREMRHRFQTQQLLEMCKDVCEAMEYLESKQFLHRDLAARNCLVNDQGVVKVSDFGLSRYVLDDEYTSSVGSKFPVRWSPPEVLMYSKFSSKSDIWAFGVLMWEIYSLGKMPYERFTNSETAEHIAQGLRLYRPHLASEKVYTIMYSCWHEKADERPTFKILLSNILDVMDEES
Chain of AKT2 (P31751 whole entry): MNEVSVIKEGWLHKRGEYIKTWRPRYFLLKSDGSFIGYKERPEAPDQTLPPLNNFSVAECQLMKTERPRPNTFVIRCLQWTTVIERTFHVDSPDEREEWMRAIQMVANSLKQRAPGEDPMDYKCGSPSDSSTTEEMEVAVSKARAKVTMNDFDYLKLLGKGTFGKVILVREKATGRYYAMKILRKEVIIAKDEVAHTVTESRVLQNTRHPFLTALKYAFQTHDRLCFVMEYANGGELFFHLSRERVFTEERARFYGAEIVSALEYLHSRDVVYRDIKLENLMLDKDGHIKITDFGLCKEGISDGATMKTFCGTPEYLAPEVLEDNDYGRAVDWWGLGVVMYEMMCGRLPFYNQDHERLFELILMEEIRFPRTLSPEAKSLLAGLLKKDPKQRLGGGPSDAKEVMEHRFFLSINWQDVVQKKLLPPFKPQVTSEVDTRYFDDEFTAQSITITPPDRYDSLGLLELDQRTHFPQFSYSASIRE
Chain of ERK1 (P27361 whole entry): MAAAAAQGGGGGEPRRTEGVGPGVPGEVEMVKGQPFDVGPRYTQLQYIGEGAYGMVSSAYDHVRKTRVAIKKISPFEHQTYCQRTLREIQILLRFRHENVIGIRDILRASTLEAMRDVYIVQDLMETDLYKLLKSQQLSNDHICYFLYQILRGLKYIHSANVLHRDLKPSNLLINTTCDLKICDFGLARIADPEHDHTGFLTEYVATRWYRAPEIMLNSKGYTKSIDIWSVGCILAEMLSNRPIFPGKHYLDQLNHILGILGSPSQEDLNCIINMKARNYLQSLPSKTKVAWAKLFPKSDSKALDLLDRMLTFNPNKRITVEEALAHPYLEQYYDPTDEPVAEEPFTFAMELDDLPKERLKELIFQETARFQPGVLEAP
Chain of ROCK2 (O75116 whole entry): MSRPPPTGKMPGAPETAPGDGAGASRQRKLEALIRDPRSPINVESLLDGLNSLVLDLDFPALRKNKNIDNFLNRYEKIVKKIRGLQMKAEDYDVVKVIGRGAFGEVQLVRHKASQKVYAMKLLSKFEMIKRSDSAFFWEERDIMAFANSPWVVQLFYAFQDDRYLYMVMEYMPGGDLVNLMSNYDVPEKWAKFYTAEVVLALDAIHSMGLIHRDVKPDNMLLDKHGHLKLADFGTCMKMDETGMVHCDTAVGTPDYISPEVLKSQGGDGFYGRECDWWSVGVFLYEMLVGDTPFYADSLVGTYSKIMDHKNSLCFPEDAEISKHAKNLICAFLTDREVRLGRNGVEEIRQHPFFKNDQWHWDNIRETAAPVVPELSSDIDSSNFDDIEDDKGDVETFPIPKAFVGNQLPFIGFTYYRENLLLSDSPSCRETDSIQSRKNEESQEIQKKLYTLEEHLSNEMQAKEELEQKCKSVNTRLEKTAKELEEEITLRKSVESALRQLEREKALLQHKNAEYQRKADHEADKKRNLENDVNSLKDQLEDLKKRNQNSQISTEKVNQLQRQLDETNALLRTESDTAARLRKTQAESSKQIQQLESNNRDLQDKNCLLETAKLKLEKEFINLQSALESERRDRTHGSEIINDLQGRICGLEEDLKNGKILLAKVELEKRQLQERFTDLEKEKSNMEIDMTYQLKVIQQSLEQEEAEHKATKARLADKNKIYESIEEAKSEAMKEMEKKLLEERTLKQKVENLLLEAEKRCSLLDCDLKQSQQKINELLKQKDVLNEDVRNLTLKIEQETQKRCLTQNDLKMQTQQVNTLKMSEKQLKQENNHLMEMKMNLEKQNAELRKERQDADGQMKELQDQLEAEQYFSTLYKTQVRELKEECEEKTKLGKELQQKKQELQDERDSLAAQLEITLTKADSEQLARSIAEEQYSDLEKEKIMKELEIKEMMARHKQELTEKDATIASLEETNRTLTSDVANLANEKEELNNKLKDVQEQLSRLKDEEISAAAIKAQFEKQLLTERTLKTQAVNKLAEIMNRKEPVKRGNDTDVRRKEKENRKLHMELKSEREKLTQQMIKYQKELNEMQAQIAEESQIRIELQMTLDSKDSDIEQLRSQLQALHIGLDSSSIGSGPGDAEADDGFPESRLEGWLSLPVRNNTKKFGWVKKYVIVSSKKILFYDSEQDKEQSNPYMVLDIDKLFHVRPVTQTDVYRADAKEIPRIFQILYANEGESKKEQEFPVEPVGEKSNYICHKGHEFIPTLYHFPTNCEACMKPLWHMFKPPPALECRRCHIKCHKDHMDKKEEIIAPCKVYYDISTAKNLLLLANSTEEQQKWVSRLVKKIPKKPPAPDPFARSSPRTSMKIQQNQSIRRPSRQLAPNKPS
Chain of MAPKAPK2 (P49137 whole entry): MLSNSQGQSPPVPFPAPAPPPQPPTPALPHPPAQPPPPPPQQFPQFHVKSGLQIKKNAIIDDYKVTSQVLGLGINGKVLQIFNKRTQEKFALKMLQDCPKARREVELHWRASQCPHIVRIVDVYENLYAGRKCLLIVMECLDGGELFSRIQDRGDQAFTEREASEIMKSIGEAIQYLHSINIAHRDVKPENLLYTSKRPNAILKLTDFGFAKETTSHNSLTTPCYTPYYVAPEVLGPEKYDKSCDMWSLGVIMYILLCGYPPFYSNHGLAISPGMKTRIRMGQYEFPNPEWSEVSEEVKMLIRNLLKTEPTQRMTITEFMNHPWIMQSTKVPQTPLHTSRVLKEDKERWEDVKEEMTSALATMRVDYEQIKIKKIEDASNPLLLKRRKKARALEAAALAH
Chain of MEK1 (Q02750 whole entry): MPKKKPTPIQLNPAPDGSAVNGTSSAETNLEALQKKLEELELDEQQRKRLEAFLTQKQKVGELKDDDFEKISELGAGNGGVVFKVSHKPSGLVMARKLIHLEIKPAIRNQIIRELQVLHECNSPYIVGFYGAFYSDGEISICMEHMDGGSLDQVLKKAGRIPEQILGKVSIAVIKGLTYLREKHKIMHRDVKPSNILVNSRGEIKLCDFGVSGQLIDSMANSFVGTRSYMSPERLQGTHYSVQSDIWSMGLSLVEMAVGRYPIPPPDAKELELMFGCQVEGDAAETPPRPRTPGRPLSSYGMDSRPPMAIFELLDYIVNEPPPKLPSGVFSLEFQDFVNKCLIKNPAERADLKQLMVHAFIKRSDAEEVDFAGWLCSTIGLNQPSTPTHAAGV
Chain of JNK3 (P53779 whole entry): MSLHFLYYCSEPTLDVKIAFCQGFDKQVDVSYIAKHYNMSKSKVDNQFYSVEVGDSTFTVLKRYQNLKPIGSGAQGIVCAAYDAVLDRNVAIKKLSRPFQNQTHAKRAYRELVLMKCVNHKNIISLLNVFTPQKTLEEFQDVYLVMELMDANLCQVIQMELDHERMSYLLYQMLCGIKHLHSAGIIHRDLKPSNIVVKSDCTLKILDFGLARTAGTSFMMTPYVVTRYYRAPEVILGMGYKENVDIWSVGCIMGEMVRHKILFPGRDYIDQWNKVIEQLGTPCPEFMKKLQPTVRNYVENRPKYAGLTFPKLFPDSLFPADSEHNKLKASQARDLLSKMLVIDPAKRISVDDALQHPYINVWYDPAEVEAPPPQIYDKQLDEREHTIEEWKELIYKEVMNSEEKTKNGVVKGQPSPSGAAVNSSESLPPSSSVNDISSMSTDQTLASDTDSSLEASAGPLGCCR

## COc1cc2c(Oc3ccc(NC(=O)C4(C(=O)Nc5ccc(F)cc5)CC4)cc3F)ccnc2cc1OCCCCCC(=O)NO [Example 13, N1′-[3-fluoro-4-[[7-[6-(hydroxyamino)-6-oxohexyloxy]-6-methoxy-4-quinolyl]oxy]phenyl]-N1-(4-fluorophenyl)cyclopropane-1,1-dicarboxamide]
GSK3B
  % Ctrl@1000 nM: 100 % Ctrl
ACVR1B
  % Ctrl@1000 nM: 90 % Ctrl
ROCK2
  % Ctrl@1000 nM: 53 % Ctrl
MEK1
  % Ctrl@1000 nM: 0.95 % Ctrl
CDK7
  % Ctrl@1000 nM: 5.8 % Ctrl
PDGFRA
  % Ctrl@1000 nM: 1.8 % Ctrl
MARK3
  % Ctrl@1000 nM: 73 % Ctrl
MEK2
  % Ctrl@1000 nM: 1.8 % Ctrl
MAPKAPK2
  % Ctrl@1000 nM: 67 % Ctrl
[1]
  % Ctrl@1000 nM: 7.8 % Ctrl
AKT2
  % Ctrl@1000 nM: 100 % Ctrl
[2]
  % Ctrl@1000 nM: 19 % Ctrl
PDGFRB
  % Ctrl@1000 nM: 0 % Ctrl
JNK3
  % Ctrl@1000 nM: 100 % Ctrl
MAP3K4
  % Ctrl@1000 nM: 100 % Ctrl
KIT
  % Ctrl@1000 nM: 0 % Ctrl
JNK2
  % Ctrl@1000 nM: 62 % Ctrl
RAF1
  % Ctrl@1000 nM: 53 % Ctrl
PIM3
  % Ctrl@1000 nM: 100 % Ctrl
PCTK1
  % Ctrl@1000 nM: 100 % Ctrl
MKNK1
  % Ctrl@1000 nM: 8.8 % Ctrl
CSNK1G2
  % Ctrl@1000 nM: 99 % Ctrl
RIOK2
  % Ctrl@1000 nM: 100 % Ctrl
FGFR3
  % Ctrl@1000 nM: 64 % Ctrl
AURKB
  % Ctrl@1000 nM: 7 % Ctrl
MKNK2
  % Ctrl@1000 nM: 0.1 % Ctrl
PAK4
  % Ctrl@1000 nM: 100 % Ctrl
CHEK1
  % Ctrl@1000 nM: 96 % Ctrl
PKAC-alpha
  % Ctrl@1000 nM: 100 % Ctrl
EGFR(L858R)
  % Ctrl@1000 nM: 5.7 % Ctrl
DCAMKL1
  % Ctrl@1000 nM: 100 % Ctrl
CSF1R
  % Ctrl@1000 nM: 0 % Ctrl
ERK1
  % Ctrl@1000 nM: 94 % Ctrl
PRKCE
  % Ctrl@1000 nM: 100 % Ctrl
AXL
  % Ctrl@1000 nM: 1.2 % Ctrl
CDK9
  % Ctrl@1000 nM: 67 % Ctrl
BTK
  % Ctrl@1000 nM: 2.6 % Ctrl
